pIC50: −log10 of the molar value.
What was measured:
[1] = target: BTK (phospho-BTK) in human whole blood (Homo sapiens, UniProt Q06187); experiment: In vitro PD assay in human whole blood (pBTK assay)
BTK enzyme = target: T1, BTK enzyme (Homo sapiens, UniProt Q06187); experiment: In vitro BTK kinase assay: BTK-POLYGAT-LS assay; assay type: biochemical; conditions: ATP 10 μM, read-out: IC50 (10uMATP)
T1 construct: purchased Upstate 14-552
Procedure, shortened: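 Human BTK activity was measured with final 10 μM ATP and 100 nM polyGAT substrate in pH 7.5 Tris buffer with 10 mM MgCl2, DTT, Triton X-100 and casein.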

BTK (phospho-BTK) in human whole blood, sequence (Q06187 whole entry): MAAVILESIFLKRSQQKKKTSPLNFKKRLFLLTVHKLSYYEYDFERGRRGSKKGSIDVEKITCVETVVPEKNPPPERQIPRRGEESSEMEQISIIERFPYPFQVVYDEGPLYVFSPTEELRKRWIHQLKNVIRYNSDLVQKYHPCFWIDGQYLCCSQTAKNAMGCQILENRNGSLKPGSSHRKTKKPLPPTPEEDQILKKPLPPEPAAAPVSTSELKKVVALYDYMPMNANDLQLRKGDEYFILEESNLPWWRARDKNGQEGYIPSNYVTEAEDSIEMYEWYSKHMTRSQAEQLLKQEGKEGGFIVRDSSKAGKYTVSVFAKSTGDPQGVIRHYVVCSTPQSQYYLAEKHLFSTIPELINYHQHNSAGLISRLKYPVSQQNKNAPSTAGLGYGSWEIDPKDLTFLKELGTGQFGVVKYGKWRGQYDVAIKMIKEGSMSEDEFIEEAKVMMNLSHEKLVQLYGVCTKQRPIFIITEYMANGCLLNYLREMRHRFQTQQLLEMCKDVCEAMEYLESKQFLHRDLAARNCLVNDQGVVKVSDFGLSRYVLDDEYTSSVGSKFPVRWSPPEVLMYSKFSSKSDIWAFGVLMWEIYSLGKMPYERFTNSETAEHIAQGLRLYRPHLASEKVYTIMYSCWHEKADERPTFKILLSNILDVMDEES
T1 sequence (Q06187 whole entry): as above

| SMILES | pIC50 [1] | pIC50 (BTK enzyme) |
| --- | --- | --- |
| Cn1cc(Nc2nccc(-c3ccc(CNC(=O)N4CC(OC(C)(C)C)C4)c(C(F)(F)F)c3)n2)cn1 [Example I-198, 3-(tert-butoxy)-N-(4-(2-((1-methyl-1H-pyrazol-4-yl)amino)pyrimidin-4-yl)-2-(trifluoromethyl)benzyl)azetidine-1-carboxamide] | > 6.30 | > 8.00 |
| Cc1cc(-c2ccnc(Nc3cnn(C4CN(C)C4)c3)n2)ccc1CNC(=O)N1CC(OC(C)(C)C)C1 [Example I-215, 3-(tert-butoxy)-N-(2-methyl-4-(2-((1-(1-methylazetidin-3-yl)-1H-pyrazol-4-yl)amino)pyrimidin-4-yl)benzyl) azetidine-1-carboxamide] | > 6.30 | > 8.00 |
| [2H]C([2H])([2H])n1cc(Nc2cc(-c3ccc(CNC(=O)N4CC(OC(C)C)C4)c(C)c3)ncn2)cn1 [Example I-243, 3-isopropoxy-N-(2-methyl-4-(6-((1-d3-methyl-1H-pyrazol-4-yl)amino)pyrimidin-4-yl)benzyl)azetidine-1-carboxamide] | > 6.30 | > 8.00 |
| CC(C)n1cc(Nc2nccc(-c3ccc(CNC(=O)N4CC(OC(C)(C)C)C4)c(C(F)(F)F)c3)n2)cn1 [Example I-199, 3-(tert-butoxy)-N-(4-(2-((1-isopropyl-1H-pyrazol-4-yl)amino)pyrimidin-4-yl)-2-(trifluoromethyl)benzyl)azetidine-1-carboxamide] | > 6.30 | > 8.00 |
| CCn1cc(Nc2nccc(-c3ccc(CNC(=O)N4CC(OC(C)(C)C)C4)c(C)c3)n2)cn1 [Example I-216, 3-(tert-butoxy)-N-(4-(2-((1-ethyl-1H-pyrazol-4-yl)amino)pyrimidin-4-yl)-2-methylbenzyl)azetidine-1-carboxamide] | > 6.30 | > 8.00 |
| COC1CN(C(=O)NCc2ccc(-c3ccnc(Nc4cnn(C)c4)n3)cc2C)C1 [Example I-300, 3-methoxy-N-[[2-methyl-4-[2-[(1-methylpyrazol-4-yl)amino]pyrimidin-4-yl]phenyl]methyl]azetidine-1-carboxamideacid] | > 6.30 | 7.00 to 8.00 |
| COCCn1cc(Nc2nccc(-c3ccc4c(c3)CCCCC4NC(=O)N3CCC(C(C)(C)C)C3)n2)cn1 (stereo not drawn) [Example I-186, 3-(tert-butyl)-N-(2-(2-((1-(2-methoxyethyl)-1H-pyrazol-4-yl)amino)pyrimidin-4-yl)-6,7,8,9-tetrahydro-5H-benzo[7]annulen-5-yl)pyrrolidine-1-carboxamide] | > 6.30 | > 8.00 |
| Cc1cc(-c2cc(Nc3cc4n(n3)CCNC4)ncn2)ccc1CNC(=O)c1cnn(C(C)(C)C)c1 [Example I-231, 1-(tert-butyl)-N-(2-methyl-4-(6-((4,5,6,7-tetrahydropyrazolo[1,5-a]pyrazin-2-yl)amino)-pyrimidin-4-yl)benzyl)-1H-pyrazole-4-carboxamide] | > 6.30 | > 8.00 |
| Cc1cc(-c2cc(Nc3cc4c(cn3)CNCC4)ncn2)ccc1CNC(=O)c1cnc(C(C)(C)C)s1 [Example I-267, 2-tert-butyl-N-[[2-methyl-4-[6-(5,6,7,8-tetrahydro-2,7-naphthyridin-3-ylamino)pyrimidin-4-yl]phenyl]methyl]thiazole-5-carboxamide] | > 6.30 | > 8.00 |
| COCCn1cc(Nc2nccc(-c3ccc4c(c3)CCCCC4NC(=O)N3CCC(C(C)C)C3)n2)cn1 (stereo not drawn) [Example I-183, 3-Isopropyl-N-(2-(2-((1-(2-methoxyethyl)-1H-pyrazol-4-yl)amino)pyrimidin-4-yl)-6,7,8,9-tetrahydro-5H-benzo[7]annulen-5-yl)pyrrolidine-1-carboxamide] | > 6.30 | > 8.00 |
| Cc1cc(-c2ccnc(Nc3cnn(C)c3)n2)ccc1CN1Cc2cc(C3CC3)sc2C1=O [Example I-13, 2-cyclopropyl-5-(2-methyl-4-(2-((1-methyl-1H-pyrazol-4-yl)amino)pyrimidin-4-yl)benzyl)-4H-thieno[2,3-c]pyrrol-6(5H)-one] | 5.00 to 5.82 | > 8.00 |
| Cc1cc(-c2ccnc(Nc3cnn(C4CCN(S(C)(=O)=O)CC4)c3)n2)ccc1CNC(=O)c1cnc(C(C)(C)C)s1 [Example I-47, 2-(tert-butyl)-N-(2-methyl-4-(2-((1-(1-(methylsulfonyl)piperidin-4-yl)-1H-pyrazol-4-yl)amino)pyrimidin-4-yl)benzyl)thiazole-5-carboxamide] | 5.82 to 6.30 | > 8.00 |
| CC(C)(C)C1CCN(C(=O)NC2CCCCc3cc(-c4ccnc(Nc5cnn(CCO)c5)n4)ccc32)C1 (stereo not drawn) [Example I-185, 3-(tert-butyl)-N-(2-(2-((1-(2-hydroxyethyl)-1H-pyrazol-4-yl)amino)pyrimidin-4-yl)-6,7,8,9-tetrahydro-5H-benzo[7]annulen-5-yl)pyrrolidine-1-carboxamide] | > 6.30 | > 8.00 |
| CCn1cc(Nc2nccc(-c3ccc(CNC(=O)N4CC(OC(C)C)C4)c(C)c3)n2)cn1 [Example I-360, N-[[4-[2-[(1-ethylpyrazol-4-yl)amino]pyrimidin-4-yl]-2-methyl-phenyl]methyl]-3-isopropoxy-azetidine-1-carboxamideacid] | > 6.30 | > 8.00 |
| CC(C)OC1CN(C(=O)NCc2ccc(-c3ccnc(Nc4cnn([C@H]5CCOC5)c4)n3)cc2C(F)(F)F)C1 [Example I-313, 3-isopropoxy-N[[4-[2-[[1-[(3S)-tetrahydrofuran-3-yl]pyrazol-4-yl]amino]pyrimidin-4-yl]-2-(trifluoromethyl)phenyl]methyl]azetidine-1-carboxamide] | > 6.30 | > 8.00 |
| CC(C)(C)CN1CCN(Cc2ccc(-c3ccnc(Nc4cnn(CCO)c4)n3)cc2C(F)(F)F)C(=O)C1 [Example I-350] | > 6.30 | > 8.00 |
| CC(C)OC1CN(C(=O)NC2CNCCc3cc(-c4ccnc(Nc5cnn(C)c5)n4)ccc32)C1 (stereo not drawn) [Example I-352, 3-isopropoxy-N-[7-[2-[(1-methylpyrazol-4-yl)amino]pyrimidin-4-yl]-2,3,4,5-tetrahydro-1H-3-benzazepin-1-yl]azetidine-1-carboxamide] | > 6.30 | 7.00 to 8.00 |

More lines, now with the values ahead:

| pIC50 [1] | pIC50 (BTK enzyme) | SMILES |
| --- | --- | --- |
| > 6.30 | > 8.00 | Cc1cc(-c2ccnc(Nc3cnn(C4CC4)c3)n2)ccc1CNC(=O)N1CCC(C(C)(C)C)C1 (stereo not drawn) [Example I-308, 3-tert-butyl-N-[[4-[2-[(1-cyclopropylpyrazol-4-yl)amino]pyrimidin-4-yl]-2-methyl-phenyl]methyl]pyrrolidine-1-carboxamide] |
| > 6.30 | > 8.00 | Cc1cc(-c2cc(Nc3cc4n(n3)CCN(C)C4)ncn2)ccc1CNC(=O)c1cnc(C(C)(C)C)s1 [Example I-63, 2-(tert-butyl)-N-(2-methyl-4-(6-((5-methyl-4,5,6,7-tetrahydropyrazolo[1,5-a]pyrazin-2-yl)amino)pyrimidin-4-yl)benzyl)thiazole-5-carboxamide] |
| > 6.30 | > 8.00 | Cc1cc(-c2ccnc(Nc3cnn(C)c3)n2)ccc1CN1CCc2c(cnn2C(C)(C)C)C1=O [Example I-192, 1-(tert-butyl)-5-(2-methyl-4-(2-((1-methyl-1H-pyrazol-4-yl)amino)pyrimidin-4-yl)benzyl)-6,7-dihydro-1H-pyrazolo[4,3-c]pyridin-4(5H)-one] |
| > 6.30 | > 8.00 | CN1CC(n2cc(Nc3nccc(-c4ccc(CNC(=O)N5CCC(C(C)(C)C)C5)c(C(F)(F)F)c4)n3)cn2)C1 (stereo not drawn) [Example I-311, 3-tert-butyl-N-[[4-[2-[[1-(1-methylazetidin-3-yl)pyrazol-4-yl]amino]pyrimidin-4-yl]-2-(trifluoromethyl)phenyl]methyl]pyrrolidine-1-carboxamide] |
| > 6.30 | > 8.00 | Cc1cc(-c2cc(Nc3cc4n(n3)CCN(C)C4)ncn2)ccc1CNC(=O)N1CC(OC(C)C)C1 [Example I-121, 3-isopropoxy-N-(2-methyl-4-(6-((5-methyl-4,5,6,7-tetrahydropyrazolo[1,5-a]pyrazin-2-yl)amino)pyrimidin-4-yl)benzyl)azetidine-1-carboxamide] |
| 5.82 to 6.30 | > 8.00 | Cc1cc(-c2ccnc(Nc3cn(C)nc3C)n2)ccc1CNC(=O)c1cnc(C(C)(C)C)s1 [Example I-51, 2-(tert-butyl)-N-(4-(2-((1,3-dimethyl-1H-pyrazol-4-yl)amino)pyrimidin-4-yl)-2-methylbenzyl)thiazole-5-carboxamide] |
| > 6.30 | > 8.00 | Cc1cc(-c2ccnc(Nc3cnn(C[C@H](N)C(=O)O)c3)n2)ccc1CNC(=O)c1cnc(C(C)(C)C)s1 [Example I-130, (S)-2-amino-3-(4-((4-(4-((2-(tert-butyl)thiazole-5-carboxamido)methyl)-3-methylphenyl)pyrimidin-2-yl)amino)-1H-pyrazol-1-yl)propanoic acid] |
| > 6.30 | > 8.00 | CN1CCn2nc(Nc3cc(-c4ccc(CNC(=O)c5cnn(C(C)(C)C)c5)c(Cl)c4)ncn3)cc2C1 [Example I-240, 1-(tert-butyl)-N-(2-chloro-4-(6-((5-methyl-4,5,6,7-tetrahydropyrazolo[1,5-a]-pyrazin-2-yl)amino)pyrimidin-4-yl)benzyl)-1H-pyrazole-4-carboxamide] |
| 5.82 to 6.30 | > 8.00 | Cc1cc(-c2ccnc(Nc3cnn(C)c3)n2)ccc1CNC(=O)c1cc2c(s1)CCCC2 [Example I-5, N-(2-methyl-4-(2-((1-methyl-1H-pyrazol-4-yl)amino)pyrimidin-4-yl)benzyl)-4,5,6,7-tetrahydrobenzo[b]thiophene-2-carboxamide] |
| > 6.30 | > 8.00 | Cc1cc(-c2cc(Nc3cc4n(n3)CCNC4)ncn2)ccc1CNC(=O)N1CC(OC(C)C)C1 [Example I-272, 3-isopropoxy-N-[[2-methyl-4-[6-(4,5,6,7-tetrahydropyrazolo[1,5-a]pyrazin-2-ylamino)pyrimidin-4-yl]phenyl]methyl]azetidine-1-carboxamide] |

Source: US10759783B2, “Biaryl inhibitors of Bruton'S tyrosine kinase” (BIOGEN MA INC., priority 2013, dated 2020)
